Assay results: ChEMBL document CHEMBL1201862, “PubChem BioAssay data set” (2004)
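Compound exposure: 48 hours, 5 concentrations, 96-well plates. GI50 is the concentration that inhibits growth by half.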 Calls of active or inactive are those of the source. Rule as the data show it: active = GI50 up to about 1.1 µM and inactive = higher.

Legend:
Experiment in all cases: NCI tumour cell line growth inhibition, 48 h
HL-60 = system: HL-60
MDA-N = system: MDA-N
A549 = system: A549
SK-MEL-28 = system: SK-MEL-28
SK-OV-3 = system: SK-OV-3
NCI-H23 = system: NCI-H23
UO-31 = system: UO-31
SNB-19 = system: SNB-19
BT-549 = system: BT-549
OVCAR-8 = system: OVCAR-8
LOX IMVI = system: LOX IMVI
COLO 205 = system: COLO 205
SR = system: SR
SW-620 = system: SW-620
RPMI-8226 = system: RPMI-8226
SF-539 = system: SF-539

Measured: GI50

CC(C)(C)OCC1NC(=O)[C@@H]2Cc3c([nH]c4ccccc34)C(C3CCCCC3)N2C1=O (some centres undefined)
inactive: HL-60 23 µM | MDA-N 16.7 µM | A549 33.7 µM | SK-MEL-28 22.6 µM | SK-OV-3 51.4 µM | NCI-H23 21.8 µM | UO-31 32.9 µM | SNB-19 37.3 µM | BT-549 20.9 µM | OVCAR-8 29.9 µM | LOX IMVI 16.9 µM | COLO 205 20.7 µM | SR 16.2 µM | SW-620 25.3 µM | RPMI-8226 19.8 µM

O=C(N/N=C\c1cccc2c([N+](=O)[O-])cccc12)Nc1ccccc1
inactive: HL-60 14.7 µM | MDA-N 13.1 µM | A549 10.3 µM | SK-MEL-28 16.4 µM | SF-539 11.5 µM | NCI-H23 15.8 µM | UO-31 13.2 µM | SNB-19 14.6 µM | BT-549 8.95 µM | OVCAR-8 12 µM | LOX IMVI 7.74 µM | COLO 205 18.5 µM | SR 11.3 µM | SW-620 13.2 µM | RPMI-8226 14.7 µM

CC(C)(CN1CCCCC1)C(=O)CC(SCCS(=O)(=O)O)c1ccc(Cl)c(Cl)c1 (centres undefined)
inactive: HL-60 3.46 µM | MDA-N 3.09 µM | A549 5.98 µM | SF-539 2.65 µM | SK-OV-3 29.7 µM | NCI-H23 3.72 µM | UO-31 4.91 µM | SNB-19 10.4 µM | BT-549 2.9 µM | OVCAR-8 2.75 µM | COLO 205 2.58 µM | SR 3.1 µM | SW-620 2.22 µM | RPMI-8226 4.01 µM

CCCCC(=O)Oc1ccc2c(C)cc(=O)oc2c1
inactive: HL-60 > 100 µM | MDA-N > 100 µM | A549 > 100 µM | SK-MEL-28 > 100 µM | SF-539 > 100 µM | NCI-H23 > 100 µM | UO-31 > 100 µM | SNB-19 > 100 µM | BT-549 > 100 µM | OVCAR-8 > 100 µM | LOX IMVI > 100 µM | COLO 205 > 100 µM | SR > 100 µM | SW-620 > 100 µM | RPMI-8226 > 100 µM

CN(C)CCNC1=Nc2ccccc2C(=O)N2CSCC12 (centres undefined)
inactive: MDA-N > 100 µM | A549 > 100 µM | SK-MEL-28 > 100 µM | SK-OV-3 > 100 µM | UO-31 > 100 µM | SNB-19 > 100 µM | BT-549 > 100 µM | OVCAR-8 > 100 µM | LOX IMVI > 100 µM | COLO 205 > 100 µM | SR > 100 µM | SW-620 > 100 µM | RPMI-8226 > 100 µM

O=C1N/N=C\Nc2ccc(cc2)S(=O)(=O)c2ccc(cc2)/N=C\NNC1=O
inactive: HL-60 10.1 µM | MDA-N > 100 µM | A549 > 100 µM | SK-MEL-28 > 100 µM | SF-539 > 100 µM | SK-OV-3 > 100 µM | NCI-H23 > 100 µM | UO-31 > 100 µM | SNB-19 > 100 µM | BT-549 72.8 µM | OVCAR-8 > 100 µM | LOX IMVI > 100 µM | COLO 205 > 100 µM | SW-620 > 100 µM

C=C1[C@H](OCC(C)C)[C@@H](OCC(C)C)[C@@H](O)C(C)(C)/C=C/[C@H](C)C(=O)[C@@]2(O)C[C@H](C)[C@H](O)[C@@H]2[C@H]1OCC(C)C
inactive: MDA-N 1.54 µM | SF-539 2.83 µM | SK-OV-3 > 7.5 µM | NCI-H23 > 7.5 µM | UO-31 6.52 µM | SNB-19 > 7.5 µM | BT-549 > 7.5 µM | OVCAR-8 > 7.5 µM | LOX IMVI > 7.5 µM | COLO 205 2.13 µM | SR > 7.5 µM | SW-620 7.38 µM

COc1cnnc2c(C)c(-c3ccccc3)nn12
inactive: HL-60 > 100 µM | MDA-N 60.5 µM | A549 > 95.9 µM | SK-MEL-28 71.9 µM | SF-539 > 100 µM | SK-OV-3 47.6 µM | NCI-H23 > 100 µM | UO-31 32.5 µM | SNB-19 > 77.6 µM | BT-549 > 100 µM | OVCAR-8 > 100 µM | LOX IMVI > 100 µM | COLO 205 > 100 µM | SW-620 > 100 µM | RPMI-8226 56.5 µM

NC(=O)C(NC=O)c1ccccc1 (centres undefined)
inactive: HL-60 > 100 µM | MDA-N > 100 µM | A549 > 100 µM | SK-MEL-28 > 100 µM | SF-539 > 100 µM | SK-OV-3 > 100 µM | NCI-H23 > 100 µM | UO-31 > 100 µM | SNB-19 > 100 µM | BT-549 > 100 µM | OVCAR-8 > 100 µM | LOX IMVI > 100 µM | COLO 205 > 100 µM | SR > 100 µM | SW-620 > 100 µM

Cc1ccc(-c2cnc(NC3OC(COC(=O)c4ccccc4)C(OC(=O)c4ccccc4)C(OC(=O)c4ccccc4)C3OC(=O)c3ccccc3)s2)cc1 (centres undefined)
inactive: MDA-N > 100 µM | A549 > 100 µM | SK-MEL-28 > 100 µM | SK-OV-3 > 100 µM | NCI-H23 > 100 µM | UO-31 > 100 µM | SNB-19 > 100 µM | BT-549 > 100 µM | OVCAR-8 > 100 µM | LOX IMVI > 100 µM | COLO 205 > 100 µM | SR > 100 µM | SW-620 > 100 µM | RPMI-8226 > 100 µM

NC(CC(O)(c1ccccc1)c1ccccc1)c1ccccc1S (centres undefined)
inactive: HL-60 15 µM | MDA-N 15.6 µM | A549 14.7 µM | SK-MEL-28 17.5 µM | SK-OV-3 18.7 µM | NCI-H23 18.5 µM | UO-31 11.4 µM | SNB-19 16.4 µM | BT-549 14.7 µM | OVCAR-8 > 10 µM | LOX IMVI 13.8 µM | COLO 205 15.4 µM | SR 23.6 µM | SW-620 16.7 µM | RPMI-8226 22.2 µM

COC(=O)[C@@](C)(COC(=O)C(C)(C)C)NC(=O)OC(C)(C)C
inactive: MDA-N > 100 µM | A549 > 100 µM | SK-MEL-28 > 100 µM | SF-539 > 100 µM | SK-OV-3 > 100 µM | NCI-H23 > 100 µM | UO-31 > 100 µM | SNB-19 > 100 µM | BT-549 > 100 µM | OVCAR-8 > 100 µM | LOX IMVI > 100 µM | COLO 205 > 100 µM | SR > 100 µM | SW-620 > 100 µM | RPMI-8226 > 100 µM

NC1CC(=O)c2c1sc(Cl)c2Cl (centres undefined)
inactive: HL-60 > 100 µM | MDA-N > 100 µM | A549 > 100 µM | SK-MEL-28 > 100 µM | SF-539 > 100 µM | SK-OV-3 > 100 µM | UO-31 > 100 µM | SNB-19 > 100 µM | BT-549 > 100 µM | OVCAR-8 > 100 µM | COLO 205 > 100 µM | SR > 100 µM | SW-620 > 100 µM | RPMI-8226 > 100 µM

COc1cc(C(=O)N(C(=S)OC23CC4CC(CC(C4)C2)C3)c2ccccc2)cc(OC)c1OC
inactive: HL-60 9.73 µM | MDA-N 25.1 µM | A549 26.1 µM | SK-MEL-28 30.5 µM | SF-539 31.3 µM | SK-OV-3 25.8 µM | NCI-H23 28 µM | UO-31 19.1 µM | SNB-19 34.6 µM | BT-549 33 µM | OVCAR-8 27 µM | COLO 205 16.4 µM | SW-620 22.7 µM

COc1ccc(C2NC(=S)Nc3c2c(=O)oc2c3ccc3ccccc32)cc1 (centres undefined)
inactive: HL-60 92.3 µM | MDA-N 76.9 µM | A549 52.1 µM | SK-MEL-28 52.5 µM | SK-OV-3 > 100 µM | NCI-H23 67.3 µM | UO-31 77.1 µM | SNB-19 35.7 µM | BT-549 45.7 µM | OVCAR-8 92.3 µM | LOX IMVI > 100 µM | COLO 205 > 100 µM | SR 48.4 µM | SW-620 > 100 µM | RPMI-8226 47.6 µM

C=CCOC1OC(CO[Si](C)(C)C(C)(C)C)C(OCc2ccccc2)C(OCc2ccccc2)C1OCc1ccccc1 (centres undefined)
inactive: HL-60 > 100 µM | MDA-N > 100 µM | A549 23.6 µM | SK-MEL-28 > 100 µM | SK-OV-3 > 100 µM | NCI-H23 > 100 µM | UO-31 46.1 µM | SNB-19 26.2 µM | BT-549 65 µM | OVCAR-8 37.5 µM | LOX IMVI 25.9 µM | COLO 205 > 100 µM | SR > 100 µM | SW-620 > 100 µM | RPMI-8226 > 100 µM

O=[As](O)(O)c1ccc(/N=N/c2ccc([As](=O)(O)O)cc2)cc1
inactive: HL-60 > 100 µM | MDA-N > 100 µM | A549 > 100 µM | SK-MEL-28 > 100 µM | NCI-H23 > 100 µM | UO-31 > 100 µM | SNB-19 > 100 µM | BT-549 > 100 µM | OVCAR-8 > 100 µM | LOX IMVI > 100 µM | SR > 100 µM | SW-620 > 100 µM

O=S(=O)(O)c1ccc2cc(/N=N/c3c(O)ccc4ccccc34)ccc2c1
inactive: HL-60 > 100 µM | MDA-N > 100 µM | A549 > 100 µM | SF-539 > 100 µM | SK-OV-3 > 100 µM | NCI-H23 > 100 µM | UO-31 > 100 µM | SNB-19 > 100 µM | BT-549 > 100 µM | OVCAR-8 > 100 µM | COLO 205 > 100 µM | SR > 100 µM | SW-620 > 100 µM

CC(Br)C(=O)NN1C2=C(Nc3ccccc31)c1cccc3cccc2c13 (centres undefined)
inactive: HL-60 57.5 µM | MDA-N 90.6 µM | A549 57.9 µM | SK-MEL-28 > 100 µM | SF-539 > 100 µM | NCI-H23 > 100 µM | UO-31 > 100 µM | SNB-19 > 100 µM | BT-549 > 100 µM | OVCAR-8 55.8 µM | LOX IMVI 41.4 µM | COLO 205 75.5 µM | SR 41 µM | SW-620 > 100 µM | RPMI-8226 48.4 µM
